The results in this text go back to patent US20040127566A1, “Retinoid hepatitis therapy” (priority 2004, published 2004).

One test relates to hepatitis-C. Nature of the test: Free ATRA (oral) in a patient positive for hepatitis-C (Example 2).
The test system of a further test is hepatitis-A. The experiment in a line: Free ATRA (oral) in a patient positive for hepatitis-A (Example 3).
Setting [1] is: blood, one month subsequent to the 3-week point.
[2] abbreviates: four months after beginning use of ATRA.
Setting [3] is: one month subsequent to the 3-week point.

Turning to `CC1=C(/C=C/C(C)=C/C=C/C(C)=C/C(=O)O)C(C)(C)CCC1` [free ATRA, all-trans retinoic acid], the viral load with hepatitis-C (setting [1]) is less than 11000 copies/ml; in the test with hepatitis-A (setting [1]), < 1,000 copies/ml. In addition, the PCR status entry in the test with hepatitis-C (setting [2]) and with hepatitis-A (setting [2]) was “negative” in each case. The “blood chemistry as to hepatitis C (SPGT and SGOT, bilirubin, alkaline phosphatase)” value with hepatitis-C (setting [3]) is listed as “normal”. Besides, the “blood chemistry as to hepatitis A (SPGT and SGOT, bilirubin, alkaline phosphatase)” value in the test with hepatitis-A (setting [3]) is listed as “normal”.
